Source: US20240016153A1, “WHEAT SEED PRODUCTION” (PIONEER HI-BRED INTERNATIONAL, INC., priority 2022, published 2024)

Key:
[1] = test system: Hard Red Winter (HRW) wheat varieties or wheat inbred lines; assay: field and greenhouse experiments: effect of GA3 on plant height, heading, flowering and yield in GA sensitive and insensitive wheat genotypes; format: in vivo
Method: A series of field and greenhouse experiments were conducted to understand the effect of GA3 on plant height, pollen dispersal and seed set in GA sensitive and insensitive wheat genotypes. Eight proprietary Hard Red Winter (HRW) wheat varieties or wheat inbred lines were used in this project at two locations. The plants were genotyped for the Rht1, Rht2, and Rht24 mutant alleles to determine which plants were GA3 sensitive or insensitive genotypes.
Commercially available GA3 was applied using a broadcast application to the wheat plants at various vegetative growth stages described by the Feekes Scale. GA3 was applied at different rates of active ingredient (ai)/acre to elucidate the growth response. Experimental treatments were: Untreated, 1 oz ai/acre applied at Feekes stage 6, 1 oz ai/acre applied sequentially at Feekes stage 6 and Feekes stage 8 (2 oz ai/acre total), and 1 oz ai/acre applied sequentially at Feekes stage 6, Feekes stage 8, and Feekes stage 10 (3 oz ai/acre total)

winter wheat genotypes = assay: production studies: sodium chlorate desiccant sprayed to delay male flowering; format: in vivo
Method: A series of production studies were conducted to understand how to delay male flowering in wheat seed production. Several winter wheat genotypes were planted in a split plot design and sprayed with a commercially available sodium chlorate desiccant at the highest labeled rate at Feekes stages 7 and 9. In most crops, desiccants are typically used to artificially accelerate the drying down of plant tissues. Here, the strategy was to slow growth rates in the male wheat plants to delay heading and subsequent flowering. […] The desiccant caused a slight 0 to 2 inch (0 to 5 cm) reduction in plant height.

Row | Structure (SMILES) | change in heading and flowering ([1]; GA insensitive genotypes) | effect on wheat plant height ([1]; GA sensitive genotypes vs same genotype not treated) | wheat yield vs untreated plants ([1]; GA sensitive genotypes, same GA3 treatment) | decrease of yield ([1]; GA sensitive male genotypes) [%] | differences in plant height with GA3 treatments ([1]; plants with Rht1+Rht24 or Rht2+Rht24 mutant alleles (GA3 insensitive genotype combinations)) | inbred male yield (winter wheat genotypes; sprayed at Feekes stage 7 or 9 (both stages), FIG. 4) | inbred male yield, comparison of stages (winter wheat genotypes; sprayed at Feekes stage 9, FIG. 4)
1 | C=C1C[C@]23C[C@@]1(O)CC[C@H]2[C@@]12C=C[C@H](O)[C@@](C)(C(=O)O1)[C@H]2[C@@H]3C(=O)O [GA3, gibberellin A3] | did not change | positive effect | lower wheat yield | 11 | did not show differences in plant height | – | –
2 | [Na+].[O-][Cl+2]([O-])[O-] [sodium chlorate] | – | – | – | – | – | reduced | greatest reduction
